Read-outs that look alike come from different tables or passages of the source.
Biological target: IDH1 R132H (Homo sapiens (Human), UniProt O75874, R132H)
Assay: Assays for IDH1 R132H Inhibitors (NADPH/aKG, resazurin detection)
Assay type: biochemical
Details: IDH1 R132H enzyme
Summary of the method: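 Substrate mix held 8 uM NADPH plus 2 mM aKG; buffer was 20 mM Tris pH 7.5 with 150 mM NaCl, 10 mM MgCl2, 0.03% BSA. After 50 min room-temperature reaction, NADPH remaining was detected with 30 μM resazurin mix over 5 min.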

[1] = Table 2, read-out: IDHR132H Activity

IDH1 R132H, sequence (O75874 whole entry R132H): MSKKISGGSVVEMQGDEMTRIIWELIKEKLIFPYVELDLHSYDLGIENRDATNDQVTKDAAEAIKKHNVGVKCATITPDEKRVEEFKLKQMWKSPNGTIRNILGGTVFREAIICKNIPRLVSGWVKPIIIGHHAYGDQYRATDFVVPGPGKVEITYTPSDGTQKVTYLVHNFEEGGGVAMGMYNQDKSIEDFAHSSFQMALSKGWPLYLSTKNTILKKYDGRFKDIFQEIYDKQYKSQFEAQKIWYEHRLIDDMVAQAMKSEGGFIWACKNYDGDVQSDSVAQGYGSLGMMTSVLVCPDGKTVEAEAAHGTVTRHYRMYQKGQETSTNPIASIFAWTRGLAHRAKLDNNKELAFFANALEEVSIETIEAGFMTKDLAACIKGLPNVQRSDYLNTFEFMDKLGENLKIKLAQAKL

| SMILES | IC50 [1] [nM] | IC50 (Table 3, read-out: R132H IC50) [nM] |
| --- | --- | --- |
| COc1ccc(OC(=O)N2CCN(c3nc(C(C)C)c4c(c3C#N)CCOC4)CC2)cc1 [Compound 103, 4-methoxyphenyl 4-(5-cyano-8-isopropyl-3,4-dihydro-1H-pyrano[3,4-c]pyridin-6-yl)piperazine-1-carboxylate] | 1000 to 10000 |  |
| C[C@@H]1CN(c2nc(C3CCCCC3)c3c(c2C#N)CCOC3)CCN1C(=O)c1cnc2ccccn12 [Compound 227, (R)-8-cyclohexyl-6-(4-(imidazo[1,2-a]pyridine-3-carbonyl)-3-methylpiperazin-1-yl)-3,4-dihydro-1H-pyrano[3,4-c]pyridine-5-carbonitrile] | 1000 to 10000 |  |
| C=CCNC(=O)N1CCN(c2nc(C3CCCCC3)c3c(c2C#N)CCOC3)C[C@H]1C [Compound 334, (R)—N-allyl-4-(5-cyano-8-cyclohexyl-3,4-dihydro-1H-pyrano[3,4-c]pyridin-6-yl)-2-methylpiperazine-1-carboxamide] | 1000 to 10000 |  |
| COCCN1CCN(c2nc(C3CC3)c3c(c2C#N)CC(C)(C)OC3)C[C@H]1C(C)C [Compound 369, (R)-8-cyclopropyl-6-(3-isopropyl-4-(2-methoxyethyl)piperazin-1-yl)-3,3-dimethyl-3,4-dihydro-1H-pyrano[3,4-c]pyridine-5-carbonitrile] | 1000 to 10000 |  |
| Cc1nc2ccccn2c1C(=O)N1CCN(c2nc(C3CCCCC3)c3c(c2C#N)CCOC3)C[C@H]1C [Compound 190, (R)-8-cyclohexyl-6-(3-methyl-4-(2-methylimidazo[1,2-a]pyridine-3-carbonyl)piperazin-1-yl)-3,4-dihydro-1H-pyrano[3,4-c]pyridine-5-carbonitrile] | 1000 to 10000 |  |
| C[C@@H]1CN(c2nc(C3CCCC3)c3c(c2C#N)CC(C)(C)OC3)C[C@H](C)N1C(=O)c1ccoc1 [Compound 146, 8-cyclopentyl-6-((3S,5R)-4-(furan-3-carbonyl)-3,5-dimethylpiperazin-1-yl)-3,3-dimethyl-3,4-dihydro-1H-pyrano[3,4-c]pyridine-5-carbonitrile] | 1000 to 10000 |  |
| COc1ccccc1CC(=O)N1CCN(c2nc(C(C)C)c3c(c2C#N)CC(C)(C)OC3)C[C@H]1C(C)C [Compound 216, (R)-8-isopropyl-6-(3-isopropyl-4-(2-(2-methoxyphenyl)acetyl)piperazin-1-yl)-3,3-dimethyl-3,4-dihydro-1H-pyrano[3,4-c]pyridine-5-carbonitrile] | 1000 to 10000 |  |
| CC(=O)N1CCc2c(C#N)c(N3CCN(C(=O)C4CC4)[C@H](C4CC4)C3)nc(C3CC3)c2C1 [Compound 480, (R)-7-acetyl-3-(4-(cyclopropanecarbonyl)-3-cyclopropylpiperazin-1-yl)-1-cyclopropyl-5,6,7,8-tetrahydro-2,7-naphthyridine-4-carbonitrile] |  | 500 to 1000 |
| CCOC(=O)C1CN(c2nc(C3CCCCC3)c3c(c2C#N)CCOC3)CCN1C(=O)c1ccoc1 (stereo not shown) [Compound 258, ethyl 4-(5-cyano-8-cyclohexyl-3,4-dihydro-1H-pyrano[3,4-c]pyridin-6-yl)-1-(furan-3-carbonyl) piperazine-2-carboxylate] | 1000 to 10000 |  |
| CCOc1ccc(NC(=O)N2CCN(c3nc(C4CC4)c4c(c3C#N)CC(C)(C)OC4)C[C@H]2C(C)C)cc1 [Compound 282, (R)-4-(5-cyano-8-cyclopropyl-3,3-dimethyl-3,4-dihydro-1H-pyrano[3,4-c]pyridin-6-yl)-N-(4-ethoxyphenyl)-2-isopropylpiperazine-1-carboxamide] | 1000 to 10000 |  |
| CC(C)c1nc(N2CCN(C(=O)Nc3ccc(F)cc3)CC2)c(C#N)c2c1COCC2 [Compound 102, 4-(5-cyano-8-isopropyl-3,4-dihydro-1H-pyrano[3,4-c]pyridin-6-yl)-N-(4-fluorophenyl)piperazine-1-carboxamide] | 1000 to 10000 |  |
| CC1(C)Cc2c(C#N)c(N3CCN(C(=O)c4ccoc4)[C@@H](c4ccccc4)C3)nc(C3CC3)c2CO1 [Compound 275] | 1000 to 10000 |  |
| CC(C)c1nc(N2CCN(C(=O)C(=O)c3ccccc3)[C@H](C)C2)c(C#N)c2c1COC(C)(C)C2 [Compound 157, (R)-8-isopropyl-3,3-dimethyl-6-(3-methyl-4-(2-oxo-2-phenylacetyl)piperazin-1-yl)-3,4-dihydro-1H-pyrano[3,4-c]pyridine-5-carbonitrile] | 1000 to 10000 |  |
| C[C@@H]1CN(c2nc(C3CC3)c3c(c2C#N)CC(C)(C)OC3)[C@@H](C)CN1C(=O)c1ccoc1 [Compound 308, 8-cyclopropyl-6-((2S,5R)-4-(furan-3-carbonyl)-2,5-dimethylpiperazin-1-yl)-3,3-dimethyl-3,4-dihydro-1H-pyrano[3,4-c]pyridine-5-carbonitrile] | 1000 to 10000 |  |
| C#CCNC(=O)N1CCN(c2nc(C3CCCCC3)c3c(c2C#N)CCOC3)C[C@H]1C [Compound 361, (R)-4-(5-cyano-8-cyclohexyl-3,4-dihydro-1H-pyrano[3,4-c]pyridin-6-yl)-2-methyl-N-(prop-2-ynyl)piperazine-1-carboxamide] | 1000 to 10000 |  |
| CC(C)c1nc(N2CC(C)N(C(=O)c3ccco3)CC2C)c(C#N)c2c1COCC2 (stereo not shown) [Compound 114, 6-(4-(furan-2-carbonyl)-2,5-dimethylpiperazin-1-yl)-8-isopropyl-3,4-dihydro-1H-pyrano[3,4-c]pyridine-5-carbonitrile] | 1000 to 10000 |  |

Now from value to compound:

| IC50 [1] [nM] | IC50 (Table 3, read-out: R132H IC50) [nM] | SMILES |
| --- | --- | --- |
| 1000 to 10000 |  | CC(=O)OCC(C)(C)C(=O)N1CCN(c2nc(C3CC3)c3c(c2C#N)CC(C)(C)OC3)C[C@H]1C(C)C [Compound 419, (R)-3-(4-(5-cyano-8-cyclopropyl-3,3-dimethyl-3,4-dihydro-1H-pyrano[3,4-c]pyridin-6-yl)-2-isopropylpiperazin-1-yl)-2,2-dimethyl-3-oxopropyl acetate] |
| 500 to 1000 |  | COCCNC(=O)N1CCN(c2nc(C3CC3)c3c(c2C#N)CC(C)(C)OC3)C[C@H]1C(C)C [Compound 353] |
| 1000 to 10000 |  | CC(C)[C@@H]1CN(c2nc(C3CC3)c3c(c2C#N)CC(C)(C)OC3)CCN1C(=O)C1CCOCC1 [Compound 305] |
| 1000 to 10000 |  | C[C@@H]1CN(c2nc(C3CCCCC3)c3c(c2C#N)CCOC3)CCN1S(C)(=O)=O [Compound 336, (R)-8-cyclohexyl-6-(3-methyl-4-(methylsulfonyl)piperazin-1-yl)-3,4-dihydro-1H-pyrano[3,4-c]pyridine-5-carbonitrile] |
| 1000 to 10000 |  | CC(C)COC(=O)N1CCN(c2nc(C3CC3)c3c(c2C#N)CC(C)(C)OC3)C[C@H]1C(C)C [Compound 339, (R)-isobutyl 4-(5-cyano-8-cyclopropyl-3,3-dimethyl-3,4-dihydro-1H-pyrano[3,4-c]pyridin-6-yl)-2-isopropyl-piperazine-1-carboxylate] |
| 1000 to 10000 |  | CC(C)c1nc(N2CCN(C(=O)c3ccoc3)[C@H](C)C2)c(C#N)c2c1COC(C)(C)C2 [Compound 149, (R)-6-(4-(furan-3-carbonyl)-3-methylpiperazin-1-yl)-8-isopropyl-3,3-dimethyl-3,4-dihydro-1H-pyrano[3,4-c]pyridine-5-carbonitrile] |
| 1000 to 10000 |  | CC(C)c1nc(N2CCN(C(=O)c3ccc(Cl)cc3Cl)[C@H](C)C2)c(C#N)c2c1COC(C)(C)C2 [Compound 166, (R)-6-(4-(2,4-dichlorobenzoyl)-3-methylpiperazin-1-yl)-8-isopropyl-3,3-dimethyl-3,4-dihydro-1H-pyrano[3,4-c]pyridine-5-carbonitrile] |
| 1000 to 10000 |  | CC(C)c1nc(N2CCN(C(=O)c3ccco3)CC2c2ccccc2)c(C#N)c2c1COCC2 (stereo not shown) [Compound 111, 6-(4-(furan-2-carbonyl)-2-phenylpiperazin-1-yl)-8-isopropyl-3,4-dihydro-1H-pyrano[3,4-c]pyridine-5-carbonitrile] |
| 1000 to 10000 |  | CC(C)c1nc(N2CCN(C(=O)Cc3cccnc3)[C@H](C)C2)c(C#N)c2c1COC(C)(C)C2 [Compound 248, (R)-8-isopropyl-3,3-dimethyl-6-(3-methyl-4-(2-(pyridin-3-yl)acetyl)piperazin-1-yl)-3,4-dihydro-1H-pyrano[3,4-c]pyridine-5-carbonitrile] |
| 1000 to 10000 |  | CC(C)c1nc(N2CCN(C(=O)c3ccco3)[C@H](C)C2)c(C#N)c2c1COC(C)(C)C2 [Compound 148, (R)-6-(4-(furan-2-carbonyl)-3-methylpiperazin-1-yl)-8-isopropyl-3,3-dimethyl-3,4-dihydro-1H-pyrano[3,4-c]pyridine-5-carbonitrile] |
| 1000 to 10000 |  | CC(C)c1nc(N2CCN(S(=O)(=O)c3cccs3)[C@H](C)C2)c(C#N)c2c1COC(C)(C)C2 [Compound 170, (R)-8-isopropyl-3,3-dimethyl-6-(3-methyl-4-(thiophen-2-ylsulfonyl)piperazin-1-yl)-3,4-dihydro-1H-pyrano[3,4-c]pyridine-5-carbonitrile] |
| < 500 |  | CC(C)[C@@H]1CN(c2nc(C3CC3)c3c(c2C#N)CC(C)(C)OC3)CCN1C(=O)C1CC1 [Compound 376, (R)-6-(4-(cyclopropanecarbonyl)-3-isopropylpiperazin-1-yl)-8-cyclopropyl-3,3-dimethyl-3,4-dihydro-1H-pyrano[3,4-c]pyridine-5-carbonitrile] |
| < 500 |  | CC(C)[C@@H]1CN(c2nc(C3CCC3)c3c(c2C#N)CC(C)(C)OC3)CCN1C(=O)Cc1cccs1 [Compound 289, (R)-8-cyclobutyl-6-(3-isopropyl-4-(2-(thiophen-2-yl)acetyl)piperazin-1-yl)-3,3-dimethyl-3,4-dihydro-1H-pyrano[3,4-c]pyridine-5-carbonitrile] |
| < 500 |  | CC[C@@H]1CN(c2nc(C3CC3)c3c(c2C#N)CC(C)(C)OC3)CCN1C(=O)CCOC [Compound 297, (R)-8-cyclopropyl-6-(3-ethyl-4-(3-methoxypropanoyl)piperazin-1-yl)-3,3-dimethyl-3,4-dihydro-1H-pyrano[3,4-c]pyridine-5-carbonitrile] |
| 500 to 1000 |  | Cc1occc1C(=O)N1CCN(c2nc(C(C)C)c3c(c2C#N)CC(C)(C)OC3)C[C@H]1C [Compound 163, (R)-8-isopropyl-3,3-dimethyl-6-(3-methyl-4-(2-methylfuran-3-carbonyl)piperazin-1-yl)-3,4-dihydro-1H-pyrano[3,4-c]pyridine-5-carbonitrile] |
